These results are taken from article PMC6458995, “MAP4K4 Inhibition Promotes Survival of Human Stem Cell-Derived Cardiomyocytes and Reduces Infarct Size In Vivo” (Cell Stem Cell, 2019).

Each structure is given as a SMILES string.

Holding throughout (experiment): Dundee kinase panel
Common to all, as to format: biochemical
Conditions in all cases: for remaining activity at 1 µM: read-out: residual activity

One assay has as its target T1, NUAK1 (Homo sapiens, UniProt O60285).
T1 construct: lines 1-140) and Reaction Biology
T1 sequence (O60285 1-661): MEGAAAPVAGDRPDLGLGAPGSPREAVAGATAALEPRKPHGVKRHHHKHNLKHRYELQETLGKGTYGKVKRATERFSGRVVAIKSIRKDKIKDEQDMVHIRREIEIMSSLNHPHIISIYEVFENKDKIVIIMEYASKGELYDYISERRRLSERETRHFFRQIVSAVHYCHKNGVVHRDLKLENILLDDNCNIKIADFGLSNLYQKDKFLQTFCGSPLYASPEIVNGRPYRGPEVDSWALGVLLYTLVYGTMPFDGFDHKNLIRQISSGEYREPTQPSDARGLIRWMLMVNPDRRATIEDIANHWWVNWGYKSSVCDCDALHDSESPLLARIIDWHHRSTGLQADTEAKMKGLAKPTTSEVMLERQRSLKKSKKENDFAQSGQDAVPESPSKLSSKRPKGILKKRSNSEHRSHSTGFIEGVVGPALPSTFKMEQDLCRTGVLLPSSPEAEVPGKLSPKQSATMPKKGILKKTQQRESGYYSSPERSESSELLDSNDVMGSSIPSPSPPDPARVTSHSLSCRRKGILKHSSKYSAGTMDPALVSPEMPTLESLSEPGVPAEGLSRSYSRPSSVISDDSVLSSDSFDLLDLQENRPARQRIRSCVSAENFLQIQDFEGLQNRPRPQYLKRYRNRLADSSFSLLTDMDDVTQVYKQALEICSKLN
As to the method: (§1) Compounds were screened at 1 μM. For key hits, pIC50 values were then determined by HTRF as above. […] Stability in mouse and human liver microsomes was determined by Cyprotex.

A further assay has as its target T2, MAP4K3 (Homo sapiens, UniProt Q8IVH8).
T2 construct: lines 1-140) and Reaction Biology
T2 sequence (Q8IVH8 1-894): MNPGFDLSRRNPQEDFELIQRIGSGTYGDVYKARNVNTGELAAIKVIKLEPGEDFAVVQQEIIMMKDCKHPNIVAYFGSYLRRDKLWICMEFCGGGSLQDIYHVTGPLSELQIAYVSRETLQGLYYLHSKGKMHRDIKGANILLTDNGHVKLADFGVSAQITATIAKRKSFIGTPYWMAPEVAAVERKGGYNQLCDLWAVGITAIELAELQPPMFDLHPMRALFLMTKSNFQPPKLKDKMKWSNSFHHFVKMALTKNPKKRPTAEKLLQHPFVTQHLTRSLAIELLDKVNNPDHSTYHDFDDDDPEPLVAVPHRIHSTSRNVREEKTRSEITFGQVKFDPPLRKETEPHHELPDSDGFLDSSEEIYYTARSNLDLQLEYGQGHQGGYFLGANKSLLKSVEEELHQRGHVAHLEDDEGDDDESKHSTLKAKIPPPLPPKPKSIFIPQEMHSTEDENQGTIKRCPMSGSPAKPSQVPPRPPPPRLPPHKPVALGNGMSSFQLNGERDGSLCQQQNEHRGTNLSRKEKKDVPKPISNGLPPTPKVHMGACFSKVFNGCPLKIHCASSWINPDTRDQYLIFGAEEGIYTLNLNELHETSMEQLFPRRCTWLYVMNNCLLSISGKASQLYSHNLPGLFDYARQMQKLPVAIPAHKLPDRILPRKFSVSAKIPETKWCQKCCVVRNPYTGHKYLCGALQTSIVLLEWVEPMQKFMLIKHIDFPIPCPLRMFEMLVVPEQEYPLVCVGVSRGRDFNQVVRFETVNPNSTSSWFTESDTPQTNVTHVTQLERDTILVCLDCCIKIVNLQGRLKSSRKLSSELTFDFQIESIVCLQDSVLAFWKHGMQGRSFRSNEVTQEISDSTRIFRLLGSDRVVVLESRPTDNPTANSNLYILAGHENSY
The procedure:
as §1

Another assay deals with T3, MARK3 (Homo sapiens, UniProt P27448).
T3 construct: lines 1-140) and Reaction Biology
T3 sequence (P27448 whole entry): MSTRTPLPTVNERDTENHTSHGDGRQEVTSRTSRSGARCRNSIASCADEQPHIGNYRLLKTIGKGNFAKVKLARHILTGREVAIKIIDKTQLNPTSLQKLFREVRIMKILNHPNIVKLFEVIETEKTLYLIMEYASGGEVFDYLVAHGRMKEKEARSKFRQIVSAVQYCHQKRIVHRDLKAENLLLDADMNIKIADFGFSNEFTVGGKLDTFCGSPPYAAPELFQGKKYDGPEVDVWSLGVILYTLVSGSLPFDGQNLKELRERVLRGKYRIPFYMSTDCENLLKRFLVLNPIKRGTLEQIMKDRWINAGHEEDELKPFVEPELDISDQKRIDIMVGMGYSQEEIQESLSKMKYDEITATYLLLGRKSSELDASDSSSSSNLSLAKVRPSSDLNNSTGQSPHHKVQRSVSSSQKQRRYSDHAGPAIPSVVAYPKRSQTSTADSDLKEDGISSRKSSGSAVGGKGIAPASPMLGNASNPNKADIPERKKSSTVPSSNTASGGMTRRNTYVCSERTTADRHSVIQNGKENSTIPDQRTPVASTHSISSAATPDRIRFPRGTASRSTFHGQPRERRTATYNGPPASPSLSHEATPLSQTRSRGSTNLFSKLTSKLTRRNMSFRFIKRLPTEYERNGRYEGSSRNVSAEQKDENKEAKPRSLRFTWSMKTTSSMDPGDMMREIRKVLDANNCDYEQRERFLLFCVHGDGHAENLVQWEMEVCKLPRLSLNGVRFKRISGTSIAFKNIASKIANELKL
The procedure: as §1

The target in the next assay is T4, EF2K (Homo sapiens, UniProt O00418).
T4 construct: lines 1-140) and Reaction Biology
T4 sequence (O00418 1-725): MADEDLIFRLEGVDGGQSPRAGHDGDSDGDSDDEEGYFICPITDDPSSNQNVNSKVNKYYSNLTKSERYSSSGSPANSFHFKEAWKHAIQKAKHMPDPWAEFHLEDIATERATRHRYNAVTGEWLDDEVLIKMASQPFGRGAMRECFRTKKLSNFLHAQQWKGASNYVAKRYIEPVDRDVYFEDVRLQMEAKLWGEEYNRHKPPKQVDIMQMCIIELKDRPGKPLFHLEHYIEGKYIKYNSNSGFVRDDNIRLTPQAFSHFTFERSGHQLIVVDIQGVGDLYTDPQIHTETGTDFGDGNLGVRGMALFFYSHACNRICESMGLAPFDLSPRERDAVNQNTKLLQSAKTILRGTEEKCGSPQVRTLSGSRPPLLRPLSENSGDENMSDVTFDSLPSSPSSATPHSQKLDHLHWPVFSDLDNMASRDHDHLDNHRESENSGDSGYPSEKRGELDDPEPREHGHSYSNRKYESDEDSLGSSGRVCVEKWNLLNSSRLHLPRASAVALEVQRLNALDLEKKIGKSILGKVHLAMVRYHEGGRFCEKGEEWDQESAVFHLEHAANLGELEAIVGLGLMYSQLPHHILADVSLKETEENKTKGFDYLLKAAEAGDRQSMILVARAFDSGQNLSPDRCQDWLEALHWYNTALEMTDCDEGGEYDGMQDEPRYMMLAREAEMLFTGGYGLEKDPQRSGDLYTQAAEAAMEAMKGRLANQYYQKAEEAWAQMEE
The procedure:
as §1

The next assay has as its target T5, PAK2 (Homo sapiens, UniProt Q13177).
T5 construct: lines 1-140) and Reaction Biology
As to the method:
as §1

T5 sequence (Q13177 whole entry): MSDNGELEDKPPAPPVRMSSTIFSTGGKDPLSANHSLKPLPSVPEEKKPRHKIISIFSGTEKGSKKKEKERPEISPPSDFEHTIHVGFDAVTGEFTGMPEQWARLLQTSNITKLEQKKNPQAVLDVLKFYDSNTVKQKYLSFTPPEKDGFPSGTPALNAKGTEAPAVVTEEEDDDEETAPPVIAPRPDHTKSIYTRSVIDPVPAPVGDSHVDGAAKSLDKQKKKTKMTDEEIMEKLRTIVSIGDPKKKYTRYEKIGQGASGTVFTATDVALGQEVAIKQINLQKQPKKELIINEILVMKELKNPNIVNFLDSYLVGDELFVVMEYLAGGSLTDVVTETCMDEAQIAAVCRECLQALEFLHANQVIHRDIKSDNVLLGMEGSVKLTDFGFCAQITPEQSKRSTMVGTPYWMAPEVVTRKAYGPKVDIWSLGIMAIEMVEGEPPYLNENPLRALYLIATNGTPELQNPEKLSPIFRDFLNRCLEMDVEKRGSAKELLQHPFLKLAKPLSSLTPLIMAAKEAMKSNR

With `O=C1Nc2ccc(I)cc2/C1=C/c1cc(Br)c(O)c(Br)c1` [GW5074], the remaining activity at 1 µM on NUAK1 came out at 63%; on MAP4K3 it was 31%; at MARK3, 72%; on EF2K it was 57%; at PAK2 it was 29%.

For `Nc1ncc(C(=O)NC2CN(C(=O)C3CC3)C2)c2ccc(-c3cccc(F)c3)nc12` [GNE-495], the residual activity (usually the signal under treatment as a percentage of the control signal) on NUAK1 (1 μM) is reported as 49%; on MAP4K3 (1 μM) it was 7%; on MARK3 (1 μM) it was 46%; on EF2K (1 μM) it was 120%; at PAK2 (1 μM), 94%.

Regarding `Oc1ncnc2c1c(-c1ccccc1)cn2-c1ccccc1` [F1386-0303, 5,7-diphenyl-7H-pyrrolo[2,3-d]pyrimidin-4-ol], the remaining activity at 1 µM at NUAK1 was 48%; at MAP4K3, 84%; on MARK3, 111%; on EF2K it was 99%; on PAK2, 79%.

On to `COCCOc1ccc(-c2cn(-c3ccccc3)c3nc[nH]c(=O)c23)cc1` [DMX-5804, 5-[4-(2-methoxy-ethoxy)-phenyl]-7-phenyl-3,7-dihydro-pyrrolo[2,3-d]pyrimidin-4-one], for which the remaining activity at 1 µM at NUAK1 amounted to 14%; on MAP4K3, 41%; at MARK3, 88%; at EF2K it was 104%; at PAK2 it was 93%.

In the case of `O=C1Cc2c([nH]c3ccc(Br)cc23)-c2ccccc2N1` [Kenpaullone], the remaining activity at 1 µM at NUAK1 worked out at 79%; on MAP4K3, 14%; on MARK3 it was 62%; at EF2K, 97%; on PAK2 it was 96%.
